What all share (format): cell-based, mouse
Assay [1] deals with pSmad2/Smad2. Kind of assay: Western blotting of pSmad2 in MSTN-induced atrophic myotube cells. The protocol:
(§1) MSTN is known to induce atrophy by increasing UPP-mediated protein degradation through activation of the ActRIIB-Smad2 signaling pathway. Phosphorylated Smad2 (pSmad2) activates this UPP-mediated proteolytic signaling. Activated UPP is involved in the degradation of MyoD and is regulated by the E3 ligase, MAFbx. To investigate the mechanism of Rh2 in this signal transduction, changes of the amount of Rh2-induced phosphorylation of Smad2 and the amount of MAFbx and MyoD expression were determined. For this purpose, myotube cells were treated with 0.4 μg/ml MSTN alone, or with combination of 0.4 μg/ml MSTN and 1 μg/ml or 10 μg/ml Rh2. Western blotting was performed using pSmad2 antibody, MAFbx antibody, and MyoD antibody respectively.
(§2) The bands of Western blot and the relative fold change values of pSmad2/Smad2, MAFbx/GAPDH and MyoD/GAPDH in each treatment conditions were shown in FIG. 4.
On the technique in general: A western blot detects proteins with antibodies after separation by electrophoresis.

Assay [2] has as its system MyoD. Kind of assay: Western blotting of MyoD in MSTN-induced atrophic myotube cells. As for the experimental part: as §1, §2
Assay [3] has as its system MAFbx. The assay can be described thus: Western blotting of MAFbx in MSTN-induced atrophic myotube cells. As for the experimental part:
as §1, §2

Assay [4] has as its system MSTN-induced atrophic myotube cells (C2C12). The assay can be described thus: Myotube width in MSTN-induced atrophic myotubes treated with Rh2. As for the experimental part: C2C12 myotube cells were fixed with 4% (w/v) paraformaldehyde (Biosesang) for 15 minutes and then treated with 0.2% (v/v) Triton X-100, and blocked with 5% (w/v) BSA for 6 h. The cells were then stained with Myosin Heavy Chain (MHC) antibody (Santa Cruz, sc-20641, 1: 1000) for 12 h at 4° C. and then incubated with Alexa Fluor 488 conjugated secondary antibody at room temperature for 4 h. Images were acquired via HCS equipment (Molecular Devices) and quantified using ImageJ software. The width of myotube cells was quantified by measuring a total of more than 100 myotube cell widths in randomly selected five regions. The width per myotube was determined as the average of three independent measurements.
To investigate the effect of Rh2 on MSTN-induced atrophy, myotubes were treated with 0.4 ug/ml MSTN alone for 24 hours or treated with combination of 0.4 ug/ml MSTN and 1 ug/ml or 10 ug/ml Rh2 (Sigma, 73658) for 24 hours. In order to measure the change of the myotube width, the myotube cells were stained with MHC antibody as in the above Experimental Example 1, and cell images were obtained using HCS, and the width of myotube was quantified using ImageJ.

Assay [5] relates to C2C12 myotube cells. Kind of assay: Induction of muscular atrophy cell model: myotube width after MSTN treatment. The note with it: 24 hours, C2C12 myotubes. The protocol: The model of muscular atrophy was constructed by differentiating mouse myoblast cell lines (C2C12 ATCC CRL-1772) into myotube cells followed by treating with MSTN.
Specifically, the cell lines were cultured in DMEM (Gibco) supplemented with 10% (v/v) Fetal Bovine Serum (FBS), 100 U/ml penicillin and 100 U/ml streptomycin (Sigma) at 37° C. in 5% CO2. For differentiating the cell lines into myotube cells, the cells were grown to 80-90% confluence and then cultured in DMEM supplemented with 2% (v/v) horse serum (Horse Serum, HS, Gibco). To verify the differentiation into myotube cells, the merge of multiple myoblasts to one long myotube cells were observed by the microscopic images.
In order to induce an atrophy model, differentiated myotube cells were cultured in serum-free DMEM medium for 3 hours, and then MSTN was treated with 0.4 μg/ml, […], 0.8 μg/ml and 1.2 μg respectively for 24 hours. […]
C2C12 myotube cells were fixed with 4% (w/v) paraformaldehyde (Biosesang) for 15 minutes and then treated with 0.2% (v/v) Triton X-100, and blocked with 5% (w/v) BSA for 6 h. […] Images were acquired via HCS equipment (Molecular Devices) and quantified using ImageJ software. The width of myotube cells was quantified by measuring a total of more than 100 myotube cell widths in randomly selected five regions. The width per myotube was determined as the average of three independent measurements.

As to `CC(C)=CCC[C@](C)(O)[C@H]1CC[C@]2(C)[C@@H]1[C@H](O)C[C@@H]1[C@@]3(C)CC[C@H](O[C@@H]4O[C@H](CO)[C@@H](O)[C@H](O)[C@H]4O)C(C)(C)[C@@H]3CC[C@]12C` [Rh2, ginsenoside Rh2], the “amount of pSmad2 (pSmad2/Smad2) relative to normal conditions” value in assay [1] (0.4 μg/ml MSTN + 10 ug/ml Rh2) is on record as “kept at the same level as normal conditions”. For the same compound, the “amount of MyoD (MyoD/GAPDH) relative to normal conditions” value in assay [2] (0.4 μg/ml MSTN + 10 ug/ml Rh2) is “kept at the same level as normal conditions”. Moreover, the “amount of MAFbx (MAFbx/GAPDH) relative to normal conditions” value in assay [3] (0.4 μg/ml MSTN + 10 ug/ml Rh2) is on record as “kept at the same level as normal conditions”. Further, the “width of myotube as % of that of normal cells” value in assay [4] (0.4 ug/ml MSTN + 1 ug/ml Rh2, 24 hours) was “about 70%”; in assay [4] (0.4 ug/ml MSTN + 10 ug/ml Rh2, 24 hours), “above 100%”.

On to Myostatin [MSTN], for which, in assay [1] (0.4 μg/ml MSTN alone), the “amount of pSmad2 (pSmad2/Smad2), increase compared with normal condition” value is listed as “about 50%”. For the same compound, the “amount of MyoD (MyoD/GAPDH), % of the normal condition” value in assay [2] (0.4 μg/ml MSTN alone) was “about 30%”. For the same compound, the “amount of MAFbx (MAFbx/GAPDH), increase compared with normal condition” value in assay [3] (0.4 μg/ml MSTN alone) was “about 50%”. For the same compound, in assay [4] (0.4 ug/ml MSTN alone, 24 hours), the “reduction of width of myotube compared to normal cells” value is reported as “about 50%”. In addition, the “decrease of width of myotube compared to the normal” value in assay [5] (0.4 ug/ml MSTN, control width = 1.0) is “about 45%”; in assay [5] (as the concentration of MSTN increased (up to 1.2 μg)), “about 60%”.
